For series [1], the system named is corneal epithelial barrier of mice suffering dry eye. The series can be described thus: Corneal OGD fluorescent staining in dry eye mouse model. The series is classed as in vivo, C57BL/6 mice. To be noted: 0.1% eye drop, 4 times a day on both eyes. As for the experimental part:
(§1) 1. Establish a dry eye mouse model: Female C57BL/6 mice of 10-12 weeks old were injected subcutaneously with scopolamine 0.5 mg/0.2 mL four times a day and kept in a dry environment for 5 days (RH: 30±3; T: 23-25° C.); normal control group was maintained in normal environment (RH: 60%-80%; T: 23-25° C.).
(§2) Preparation of mizoribine eye drop: dry eye treatment group used 0.1% of mizoribine eye drop prepared by the method of Embodiment 1.
(§3) Eye drop method: Eye drop treatment was performed using the above-mentioned eye drops 4 times a day on both eyes.
1. Corneal OGD fluorescent staining: mice were sacrificed, and 0.5 μl of Oregongreen-dextran (OGD) was dropped into the conjunctival sac of mice with a pipette, manual blinking was performed, and the conjunctival sac was washed with 1 mL of normal saline 1 minute later. The corneal epithelial fluorescence staining was observed and shot under a living fluorescence microscope.

The test system of series [2] is conjunctival goblet cells. The experiment in a line: PAS staining of conjunctival goblet cells in dry eye mouse model. The series is classed as in vivo, C57BL/6 mice. To be noted: 0.1% eye drop, compared with the dry eye group. As for the experimental part:
as §1, §2, §3
2. PAS staining of conjunctival goblet cells: Paraffin specimens of the whole eyeballs (conjunctival sac) of the mice were cut into 5 um sections and stained with periodic acid-Schiff (PAS) reagent to observe the morphology and number of conjunctival goblet cells.

Series [3] relates to conjunctival CD4+T cell infiltration. The experiment in a line: Conjunctival CD4+T cell staining in dry eye mouse model. The series is classed as in vivo, C57BL/6 mice. To be noted: 0.1% eye drop, compared with the dry eye group. As for the experimental part: as §1, §2, §3
3. Conjunctival CD4+T cell staining: fixing frozen sections by acetone at −20° C. for 10 minutes, disrupting with 0.2% of Triton-X PBS for 10 minutes, and using 0.3% of H2O2 to eliminate endogenous peroxidase, blocking with 20% of normal goat serum for 45 minutes. The primary anti-CD4 was incubated for 1 hour at room temperature. After extensive washing (digestion), the biotinylated (second) antibody was incubated for 30 minutes. Finally, a Vectastain Elite ABC kit was used to develop color and stain the nucleus.

For series [4], the system named is IFN-γ. The series can be described thus: Real-Time PCR of conjunctival RNA in dry eye mouse model. To be noted: 0.1% eye drop, compared with the dry eye group. The series is classed as in vivo, C57BL/6 mice. The method, then:
as §1, §2, §3
(§4) Prepare the PCR reaction solution according to the following components:
(§5) Three-step PCR amplification standard procedure:
(§6) Stage 1: Pre-denaturation cycle number: 195° C., 30 sec.
(§7) Stage 2: number of PCR reaction cycles: 4095° C. for 5 sec. and 60° C. for 34 sec.
(§8) Stage 3: Dissolving curve
(§9) The relative expression level of the gene was analyzed by the relative Ct method, and the specific expression of the target gene was calculated by the following formula, that is to say, the relative expression level=2^−ΔΔCt; wherein −ΔΔCt=−(ΔCt, q−ΔCt, cb), ΔCt, q=Ct,x−Ct, r ΔCt, cb=Ct, cb−Ct, r, where r=reference gene, Cb=calibration value, X=target gene, and cycle threshold (C) is determined through primary signal (fluorescence).

Series [5] deals with IL-13. The description is as above. The series is classed as in vivo, C57BL/6 mice. Particulars: 0.1% eye drop, compared with the dry eye group. The method, then:
as §1, §2, §3, §4, §5, §6, §7, §8, §9

Series [6] has as its system IL-1β. Described as above. The series is classed as in vivo, C57BL/6 mice. To be noted: 0.1% eye drop, compared with the dry eye group. The method, then:
as §1, §2, §3, §4, §5, §6, §7, §8, §9

Series [7] relates to TNF-α. Described as above. The series is classed as in vivo, C57BL/6 mice. Particulars: 0.1% eye drop, compared with the dry eye group. The method, then:
as §1, §2, §3, §4, §5, §6, §7, §8, §9

Series [8] has as its system Patients with Sjogren's syndrome. Particulars: 0.03%; cited from earlier work.
Series [9] has as its system NF-κB signaling pathway. Particulars: 0.025% applied topically to the eye, mice; cited from earlier work.
In series [10] the test system is dry eye dogs. To be noted: 0.02% drops applied topically in the eye; cited from earlier work.
For series [11] the following is noted: cited from earlier work.

This is an account of results in patent publication US20200171066A1, “EYE DROP FOR TREATING DRY EYE” (Xiamen University, priority 2017, published 2020).

SMILES strings stand for the structures.

In the case of `NC(=O)c1ncn([C@@H]2O[C@H](CO)[C@@H](O)[C@H]2O)c1O` [mizoribine], the “corneal flaky staining (OGD)” value in series [1] is recorded as “no flaky staining was observed”. The “number of corneal punctiform staining (OGD)” value in [1] (compared with the dry eye group) is listed as “significantly reduced”. For the same molecule, the “number of conjunctival goblet cells (PAS)” value in [2] is “significant increase”. The “proportion of brown-yellow cells (conjunctival CD4+T cells)” value in series [3] is “significantly reduced”. Also, the “expression of conjunctival IFN-γ” value in [4] is reported as “significantly decreased”. Moreover, the “expression of conjunctival IL-13” value in [5] is “significantly decreased”. Besides, in series [6], the “expression of conjunctival IL-1β” value was “significantly decreased”. Also, the “expression of conjunctival TNF-α” value in series [7] was “significantly decreased”.
Turning to `C=CC[C@@H]1/C=C(\C)C[C@H](C)C[C@H](OC)[C@H]2O[C@@](O)(C(=O)C(=O)N3CCCC[C@H]3C(=O)O[C@H](/C(C)=C/[C@@H]3CC[C@@H](O)[C@H](OC)C3)[C@H](C)[C@@H](O)CC1=O)[C@H](C)C[C@@H]2OC` [FK506, tacrolimus], the tear film stability result in series [8] is “improve tear film stability”. Besides, in series [9], the “activation of NF-κB signaling pathway” value is “inhibit the activation of NF-κB signaling pathway” and the “ocular surface signs of dry eye” value is “reduce the ocular surface signs of dry eye”. Further, the “amount of tear secretion” value in series [10] is given as “significantly increase”. In series [11], the solubility in water result is reported as “hardly soluble in water”.
